Laboratory results from publication PMC9561151, “Structural studies of the phosphoribosyltransferase involved in cobamide biosynthesis in methanogenic archaea and cyanobacteria” (Scientific Reports, 2022).

Assays:
[1] = target: T1, MjCobT (Methanocaldococcus jannaschii, UniProt Q58993); test: turnover in crystal, product seen by X-ray; format: biochemical; conditions: free base not seen in the structure
T1 construct: gene MJ1598; expressed in E. coli BL21-CodonPlus from pTEV5; N-terminal His6 tag cut with rTEV; Met 1 to Tyr 348 modelled; dimer

[2] = target: T1, MjCobT; test: X-ray crystal structure of complex, […] Å; format: binding
[3] = target: T1, MjCobT; test: X-ray crystal structure of complex, […] Å; format: binding; conditions: formed in the crystal from NaMN and adenine; active site with nicotinic acid
[4] = target: the molecule itself; test: crystal structure; three crystal forms of MjCobT grown at room temperature: apo (P41212, 1 subunit per asymmetric unit), with NaMN and α-RP + nicotinic acid (P21, 2 subunits), with α-AMP + nicotinic acid (P21, 2 subunits); molecular replacement with 3L0Z

## Cc1cc2nc[nH]c2cc1C [DMB]
[1]; 1 mM DMB in crystallization, NaMN soak overnight
  turnover in crystal, product seen by X-ray: During that time the enzyme catalyzed a transferase reaction

## O=C([O-])c1ccc[n+]([C@@H]2O[C@H](COP(=O)(O)O)[C@@H](O)[C@H]2O)c1 [NaMN]
[2]; crystals grown with DMB, soaked overnight in 1 mM NaMN, NaMN in active site of chain A
  X-ray crystal structure of complex, 2.3 Å: NaMN lies at the base of the active site for chain A

## Nc1ncnc2[nH]cnc12 [adenine]
[1]; 1 mM adenine and 1 mM NaMN soak, pH 8.5
  turnover in crystal, product seen by X-ray: the reaction product was prepared in situ by soaking the crystals in NaMN and adenine

## Nc1ncnc2ncn([C@H]3O[C@H](COP(=O)(O)O)[C@@H](O)[C@H]3O)c12 [α-AMP]
[3]
  X-ray crystal structure of complex, 1.4 Å: the crystals were highly ordered and the position of α-AMP is unequivocal

## Cc1cc2ncn([C@H]3O[C@H](COP(=O)(O)O)[C@@H](O)[C@H]3O)c2cc1C [α-RP]
[2]; formed in the crystal from NaMN and DMB, active site of chain B with nicotinic acid, occupancy below 1.0
  X-ray crystal structure of complex, 2.3 Å: One subunit contains NaMN, whereas the second includes α-RP and nicotinic acid

B1: Methanocaldococcus jannaschii nicotinate mononucleotide:base phosphoribosyltransferase (MjCobT) (enzyme)
chain: MSIIAINENGFLDKIKGRNPLFTCVISSIETTLSIPISGVHRDVIKYTPSADVELVFYGKSLTLKTPPIDATGSPTPATITRACVELKNIKNLHIDAGAFVKPKIPFIEIDEKPTGRIEEGKAMNNSKELYMKGYLLGKNLDAELLIVGESVPGGTTTALGVLLGLGYDAEGKVSSGSINNPHELKIKVVREGLKKAGINEKSSVFDVLNAVGDKMMPVVAGLAISFAERNKPVILAGGTQMSAVLAVIKEINKKVLDKNLIAIGTTEFVLNDKKGDLKGIVEQIGNVPVLASKFYFEKAKIEGLKNYCKGSVKEGVGAGGIAVYSIVNDLEPTKIREFIENKFYEWYKE
notes: CobT (NaMN:base phosphoribosyltransferase) of Methanocaldococcus jannaschii; the modelled chain runs from Met 1 to Tyr 348; also called PRTase from Methanocaldococcus jannaschii; source: E. coli BL21-CodonPlus, purified (80 °C heat step, Ni-NTA, rTEV cleavage, second Ni-NTA); not shown: His6, N-terminal, cleaved
[4]
  stoichiometry N: 2
